Values of other authors, collected in patent US7932388B2, “Isotopically enriched N-substituted piperazines and methods for the preparation thereof” (DH Technologies Development Pte. Ltd., priority 2004, dated 2011).

Details: alcohol (leaving group) of the trifluoroacetate ester; no method or conditions printed

N-hydroypyrrolidinone [NHP]
pKa: 9.38
